Source: patent US20040156869A1, “2-substituted quinazolin-4-ylamine analogues” (Neurogen Corporation, priority 2002, published 2004)

The compounds below were run against human capsaicin receptor (VR1) (Homo sapiens, UniProt Q8NER1) (assay: Capsaicin receptor binding assay ([3H]RTX competition, VR1-transfected HEK293 membranes)).
human capsaicin receptor (VR1), sequence (Q8NER1 whole entry): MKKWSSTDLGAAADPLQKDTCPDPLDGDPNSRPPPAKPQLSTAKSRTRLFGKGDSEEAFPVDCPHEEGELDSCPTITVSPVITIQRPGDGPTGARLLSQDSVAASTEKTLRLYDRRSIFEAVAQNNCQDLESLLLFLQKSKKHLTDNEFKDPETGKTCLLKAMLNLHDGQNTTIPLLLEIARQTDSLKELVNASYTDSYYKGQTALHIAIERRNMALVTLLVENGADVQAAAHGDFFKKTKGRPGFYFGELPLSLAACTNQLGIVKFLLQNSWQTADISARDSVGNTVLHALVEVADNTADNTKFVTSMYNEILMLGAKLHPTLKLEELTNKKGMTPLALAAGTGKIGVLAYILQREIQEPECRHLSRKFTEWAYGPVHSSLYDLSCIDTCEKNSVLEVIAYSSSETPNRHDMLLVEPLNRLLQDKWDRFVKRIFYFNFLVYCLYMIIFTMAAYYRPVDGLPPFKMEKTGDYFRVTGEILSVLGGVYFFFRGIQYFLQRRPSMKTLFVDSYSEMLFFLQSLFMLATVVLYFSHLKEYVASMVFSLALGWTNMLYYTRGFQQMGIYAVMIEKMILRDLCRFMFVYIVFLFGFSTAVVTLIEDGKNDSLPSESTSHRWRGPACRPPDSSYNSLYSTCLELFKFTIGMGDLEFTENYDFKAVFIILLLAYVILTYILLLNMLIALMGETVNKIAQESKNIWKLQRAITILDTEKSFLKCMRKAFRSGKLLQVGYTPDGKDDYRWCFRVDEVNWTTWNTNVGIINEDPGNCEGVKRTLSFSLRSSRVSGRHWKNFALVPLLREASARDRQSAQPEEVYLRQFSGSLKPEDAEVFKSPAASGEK

Ki, < 1000 nM:
CC(C)COCc1nc(Nc2ccc(S(=O)(=O)C(F)(F)F)cc2)c2ccc(-c3ncccc3Cl)nc2n1 [Compound 181, [7-(3-Chloro-pyridin-2-yl)-2-isobutoxymethyl-pyrido[2,3-d]pyrimidin-4-yl]-(4-trifluoromethanesulfonyl-phenyl)-amine]
COCc1nc(Nc2ccc(C(F)(F)F)c(C)c2)c2ccc(-c3ncccc3C(F)(F)F)nc2n1 [Compound 182, [2-Methoxymethyl-7-(3-trifluoromethyl-pyridin-2-yl)-pyrido[2,3-d]pyrimidin-4-yl]-(3-methyl-4-trifluoromethyl-phenyl)-amine]
Cc1cc(Nc2nc(COCC(C)C)nc3nc(-c4ncccc4C)ccc23)ccc1C(F)(F)F [Compound 183, [2-Isobutoxymethyl-7-(3-methyl-pyridin-2-yl)-pyrido[2,3-d]pyrimidin-4-yl]-(3-methyl-4-trifluoromethyl-phenyl)-amine]
CCOCc1nc(Nc2ccc(C(F)(F)F)c(C)c2)c2ccc(-c3ncccc3Cl)nc2n1 [Compound 184, [7-(3-Chloro-pyridin-2-yl)-2-ethoxymethyl-pyrido[2,3-d]pyrimidin-4-yl]-(3-methyl-4-trifluoromethyl-phenyl)-amine]
CCOC(=O)c1nc(Nc2ccc(C(C)(C)C)cc2)c2ccc(-c3ncccc3C)nc2n1 [Compound 185, 4-(4-tert-Butyl-phenylamino)-7-(3-methyl-pyridin-2-yl)-pyrido[2,3-d]pyrimidine-2-carboxylic acid ethyl ester]
O=S(=O)(c1ccc(Nc2nc(CO)nc3cc(-c4ncccc4C(F)(F)F)ccc23)cc1)N1CCCCC1 [Compound 186, [4-[4-(Piperidine-1-sulfonyl)-phenylamino]-7-(3-trifluoromethyl-pyridin-2-yl)-quinazolin-2-yl]-methanol]
CN(C(C)(C)C)S(=O)(=O)c1ccc(Nc2nc(CO)nc3cc(-c4ncccc4C(F)(F)F)ccc23)cc1 [Compound 187, N-tert-Butyl-4-[2-hydroxymethyl-7-(3-trifluoromethyl-pyridin-2-yl)-quinazolin-4-ylamino]-N-methyl-benzenesulfonamide]
COCc1nc(Nc2ccc(OC(F)(F)F)cc2)c2ccc(-c3ncccc3C(F)(F)F)nc2n1 [Compound 188, [2-Methoxymethyl-7-(3-trifluoromethyl-pyridin-2-yl)-pyrido[2,3-d]pyrimidin-4-yl]-(4-trifluoromethoxy-phenyl)-amine]
CC(C)COCc1nc(Nc2ccc(OC(F)(F)F)cc2)c2ccc(-c3ncccc3C(F)(F)F)nc2n1 [Compound 189, [2-Isobutoxymethyl-7-(3-trifluoromethyl-pyridin-2-yl)-pyrido[2,3-d]pyrimidin-4-yl]-(4-trifluoromethoxy-phenyl)-amine]
Cc1cccnc1-c1ccc2c(Nc3ccc(OC(F)(F)F)cc3)nc(COCC(C)C)nc2n1 [Compound 190, [2-Isobutoxymethyl-7-(3-methyl-pyridin-2-yl)-pyrido[2,3-d]pyrimidin-4-yl]-(4-trifluoromethoxy-phenyl)-amine]
COCc1nc(Nc2ccc(C(C)(C)C)nc2)c2ccc(-c3ncccc3C(F)(F)F)nc2n1 [Compound 191, (6-tert-Butyl-pyridin-3-yl)-[2-methoxymethyl-7-(3-trifluoromethyl-pyridin-2-yl)-pyrido[2,3-d]pyrimidin-4-yl]-amine]
CC(C)COCc1nc(Nc2ccc(C(C)(C)C)nc2)c2ccc(-c3ncccc3C(F)(F)F)nc2n1 [Compound 192, (6-tert-Butyl-pyridin-3-yl)-[2-isobutoxymethyl-7-(3-trifluoromethyl-pyridin-2-yl)-pyrido[2,3-d]pyrimidin-4-yl]-amine]
Cc1cccnc1-c1ccc2c(Nc3ccc(C(C)(C)C)nc3)nc(COCC(C)C)nc2n1 [Compound 193, (6-tert-Butyl-pyridin-3-yl)-[2-isobutoxymethyl-7-(3-methyl-pyridin-2-yl)-pyrido[2,3-d]pyrimidin-4-yl]-amine]
CC(C)COCc1nc(Nc2ccc(C(C)(C)C)nc2)c2ccc(-c3ncccc3Cl)nc2n1 [Compound 194, (6-tert-Butyl-pyridin-3-yl)-[7-(3-chloro-pyridin-2-yl)-2-isobutoxymethyl-pyrido[2,3-d]pyrimidin-4-yl]-amine]
COCc1nc(Nc2ccc(OC(F)(F)F)cc2)c2ccc(-c3ncccc3Cl)nc2n1 [Compound 195, [7-(3-Chloro-pyridin-2-yl)-2-methoxymethyl-pyrido[2,3-d]pyrimidin-4-yl]-(4-trifluoromethoxy-phenyl)-amine]
COCc1nc(Nc2ccc(OC(F)(F)F)cc2)c2ccc(-c3ncccc3C)nc2n1 [Compound 196, [2-Methoxymethyl-7-(3-methyl-pyridin-2-yl)-pyrido[2,3-d]pyrimidin-4-yl]-(4-trifluoromethoxy-phenyl)-amine]
COCc1nc(Nc2ccc(C(F)(F)F)c(C)c2)c2ccc(-c3ncccc3Cl)nc2n1 [Compound 197, [7-(3-Chloro-pyridin-2-yl)-2-methoxymethyl-pyrido[2,3-d]pyrimidin-4-yl]-(3-methyl-4-trifluoromethyl-phenyl)-amine]
COCc1nc(Nc2ccc(C(F)(F)F)c(C)c2)c2ccc(-c3ncccc3C)nc2n1 [Compound 198, [2-Methoxymethyl-7-(3-methyl-pyridin-2-yl)-pyrido[2,3-d]pyrimidin-4-yl]-(3-methyl-4-trifluoromethyl-phenyl)-amine]
COCc1nc(Nc2ccc(C(C)(C)C)nc2)c2ccc(-c3ncccc3Cl)nc2n1 [Compound 199, (6-tert-Butyl-pyridin-3-yl)-[7-(3-chloro-pyridin-2-yl)-2-methoxymethyl-pyrido[2,3-d]pyrimidin-4-yl]-amine]
COCc1nc(Nc2ccc(C(C)(C)C)nc2)c2ccc(-c3ncccc3C)nc2n1 [Compound 200, (6-tert-Butyl-pyridin-3-yl)-[2-methoxymethyl-7-(3-methyl-pyridin-2-yl)-pyrido[2,3-d]pyrimidin-4-yl]-amine]
CC(C)(C)c1ccc(Nc2nc(CO)nc3cc(-c4ncccc4C(F)(F)F)cnc23)cc1 [Compound 201, [4-(4-tert-Butyl-phenylamino)-7-(3-trifluoromethyl-pyridin-2-yl)-pyrido[3,2-d]pyrimidin-2-yl]-methanol]
O=S(=O)(c1ccc(Nc2nc(CO)nc3cc(-c4ncccc4C(F)(F)F)cnc23)cc1)N1CCCCC1 [Compound 202, [4-[4-(Piperidine-1-sulfonyl)-phenylamino]-7-(3-trifluoromethyl-pyridin-2-yl)-pyrido[3,2-d]pyrimidin-2-yl]-methanol]
CN(C(C)(C)C)S(=O)(=O)c1ccc(Nc2nc(CO)nc3cc(-c4ncccc4C(F)(F)F)cnc23)cc1 [Compound 203, N-tert-Butyl-4-[2-hydroxymethyl-7-(3-trifluoromethyl-pyridin-2-yl)-pyrido[3,2-d]pyrimidin-4-ylamino]-N-methyl-benzenesulfonamide]
Cc1cccnc1-c1ccc2c(Nc3ccc(C(C)(C)C)cc3)nc(CO)nc2n1 [Compound 204, [4-(4-tert-Butyl-phenylamino)-7-(3-methyl-pyridin-2-yl)-pyrido[2,3d]pyrimidin-2-yl]-methanol]
Cc1cccnc1-c1ccc2c(Nc3ccc(C(F)(F)F)cc3)nc(C(=O)O)nc2n1 [Compound 205, 7-(3-Methyl-pyridin-2-yl)-4-(4-trifluoromethyl-phenylamino)-pyrido[2,3-d]pyrimidine-2-carboxylic acid]
O=C(O)c1nc(Nc2ccc(C(F)(F)F)cc2)c2ccc(-c3ncccc3C(F)(F)F)nc2n1 [Compound 206, 4-(4-Trifluoromethyl-phenylamino)-7-(3-trifluoromethyl-pyridin-2-yl)-pyrido[2,3-d]pyrimidine-2-carboxylic acid]
Cc1cccnc1-c1ccc2c(Nc3ccc(C(C)(C)C)cc3)nc(C(=O)O)nc2n1 [Compound 207, 4-(4-tert-Butyl-phenylamino)-7-(3-methyl-pyridin-2-yl)-pyrido[2,3-d]pyrimidine-2-carboxylic acid]
COCc1nc(Nc2ccc(C(C)(C)C(C)=O)cc2)c2ccc(-c3ncccc3C(F)(F)F)nc2n1 [Compound 208, 3-{4-[2-Methoxymethyl-7-(3-trifluoromethyl-pyridin-2-yl)-pyrido[2,3-d]pyrimidin-4-ylamino]-phenyl}-3-methyl-butan-2-one]
CC(=O)C(C)(C)c1ccc(Nc2nc(COCC(C)C)nc3nc(-c4ncccc4C)ccc23)cc1 [Compound 209, 3-{4-[2-Isobutoxymethyl-7-(3-methyl-pyridin-2-yl)-pyrido[2,3-d]pyrimidin-4-ylamino]-phenyl}-3-methyl-butan-2-one]
CC(=O)C(C)(C)c1ccc(Nc2nc(COCC(C)C)nc3nc(-c4ncccc4Cl)ccc23)cc1 [Compound 210, 3-{4-[7-(3-Chloro-pyridin-2-yl)-2-isobutoxymethyl-pyrido[2,3-d]pyrimidin-4-ylamino]-phenyl}-3-methyl-butan-2-one]
CC(=O)C(C)(C)c1ccc(Nc2nc(COCC(C)C)nc3nc(-c4ncccc4C(F)(F)F)ccc23)cc1 [Compound 211, 3-{4-[2-Isobutoxymethyl-7-(3-trifluoromethyl-pyridin-2-yl)-pyrido[2,3-d]pyrimidin-4-ylamino]-phenyl}-3-methyl-butan-2-one]
COCc1nc(Nc2ccc(C(C)(C)C(C)=O)cc2)c2ccc(-c3ncccc3C)nc2n1 [Compound 212, 3-{4-[2-Methoxymethyl-7-(3-methyl-pyridin-2-yl)-pyrido[2,3-d]pyrimidin-4-ylamino]-phenyl}-3-methyl-butan-2-one]
COCc1nc(Nc2ccc(C(C)(C)C(C)=O)cc2)c2ccc(-c3ncccc3Cl)nc2n1 [Compound 213, 3-{4-[7-(3-Chloro-pyridin-2-yl)-2-methoxymethyl-pyrido[2,3-d]pyrimidin-4-ylamino]-phenyl}-3-methyl-butan-2-one]
